Results reported in US6503873B1, “Ultra mild detergent compositions” (Hampshire Chemical Corp, priority 1996, dated 2003).

Key:
[1] = Lather stability (lather drainage time, method of Hart and DeGeorge); type: physicochemical; details: for enhancement of lather stability of the product by addition as one-third of the product: 3:1 blend; for change in lather stability (lather drainage time) on addition of water hardness: approximately 3,000 ppm water hardness (CaCO3), FIG. 2
Protocol: The lather stability of a surfactant solution, expressed as lather drainage time, can be determined by the method of Hart and DeGeorge, J. Soc. Cosmet. Chem., 31, 223-226 (1980). In this method, a 200 ml portion of the test solution is agitated in a blender for one minute. The lather produced is immediately poured into a Nalgene PF150 funnel, which has been modified for easy detection of endpoint by incorporation of a fine strand of Nicrome wire across the funnel, where the diameter is 9 cm. The funnel is supported by a 20-mesh sieve. The time elapsed between pouring of the blender contents into the funnel and reappearance of the wire through the subsiding foam, determined using a stopwatch, is reported as the lather drainage time in seconds.

human skin cels = experiment: In vitro skin irritation testing (MTT assay); type: cell-based; details: tissue immersed for 24 hours; about 16% solutions
Protocol: Samples of 1) the aforementioned commercial baby shampoo, 2) Na2LED3A, 3) a 3:1 ratio blend of baby shampoo and Na2LED3A, and 4) a 16% solution of sodium laureth 3 sulfate (a surfactant commonly used in ordinary shampoo) were subjected to in vitro skin irritation testing. A sample of the tissue is immersed for 24 hours in a solution of the substance to be evaluated and later assayed for viable mitochondria by an MTT assay. The MTT assay is a colorimetric method for determining cell viability based on the reduction of a tetrazolium salt (MTT) into a colored formazan dye by mitochondrial enzymes of the electron transport chain. The extent to which the number of viable mitochondria has been reduced, compared to a control, is taken as a measure of the toxicity of the test substance to human skin cels. The in vitro scoring classification used was as follows: […]

[2] = product Johnsons Baby 2 in 1 shampoo, hard water (200 ppm CaCO3)
[3] = product Johnsons Baby 2 in 1 shampoo, soft water
[4] = product Johnsons Baby Bath, hard water (200 ppm CaCO3)
[5] = product Johnsons Baby Bath, soft water
[6] = product Johnsons Baby Shampoo, hard water (200 ppm CaCO3)
[7] = product Johnsons Baby Shampoo, soft water
[8] = product Suave Baby Care, hard water (200 ppm CaCO3)
[9] = product Suave Baby Care, soft water
[10] = sodium chloride, 1% solution, pH 7, FIG. 1

| enhancement of lather stability of the product by addition as one-third of the product [1, 2] | enhancement of lather stability of the product by addition as one-third of the product [1, 3] | enhancement of lather stability of the product by addition as one-third of the product ([1]; product Johnsons Baby Shampoo, even harder water (400 ppm CaCO3)) | lather effectiveness relative to the baby shampoo alone ([1]; pure substance, hard water, versus Johnsons Baby 2 in 1 shampoo, FIG. 11) | Compound | enhancement of lather stability of the product by addition as one-third of the product [1, 4] | enhancement of lather stability of the product by addition as one-third of the product [1, 5] | enhancement of lather stability of the product by addition as one-third of the product [1, 6] | enhancement of lather stability of the product by addition as one-third of the product [1, 7] | enhancement of lather stability of the product by addition as one-third of the product [1, 8] | enhancement of lather stability of the product by addition as one-third of the product [1, 9] | change in lather stability (lather drainage time) on addition of water hardness ([1]; 1% solution) | lather drainage time depressed by, upon addition of 4% electrolyte [1, 10] | Classification (in vitro skin irritation) (human skin cels) | In vitro Score MTT-50 (human skin cels) | lather drainage time ([1]; in the presence of 200 ppm hardness, FIG. 10) | lather drainage time increased by, upon addition of 4% electrolyte [1, 10] |
| --- | --- | --- | --- | --- | --- | --- | --- | --- | --- | --- | --- | --- | --- | --- | --- | --- |
| approximately 7 fold | more than 2 fold | more than 24 fold | – | CCCCCCCCCCCC(=O)N(CCN(CC(=O)[O-])CC(=O)[O-])CC(=O)O.[K+].[K+] [K2LED3A, potassium lauroyl-ED3A] | approximately 12 fold | approximately 5 fold | more than 14 fold | approximately 8 fold | 5 fold | approximately 2 fold | – | – | – | – | – | – |
| 9 fold | more than 9 fold | – | more than 100 times | CCCCCCCCCCCCCC(=O)N(CCN(CC(=O)[O-])CC(=O)[O-])CC(=O)O.[Na+].[Na+] [Na2MED3A, sodium myristoyl ED3A] | – | – | – | – | – | – | – | – | – | – | – | – |
| – | – | – | – | CCCCCCCCCCCCOS(=O)(=O)[O-].[Na+] [sodium lauryl sulfate, reference compound] | – | – | – | – | – | – | five-fold reduction | 30 s | – | – | – | – |
| – | – | – | – | sodium laureth 3 sulfate [Na Laureth(3) sulfate, reference compound] | – | – | – | – | – | – | – | – | Moderate (201-1,000) | 522 micro g/ml | – | – |

| Compound | enhancement of lather stability of the product by addition as one-third of the product [1, 2] | enhancement of lather stability of the product by addition as one-third of the product [1, 3] | enhancement of lather stability of the product by addition as one-third of the product ([1]; product Johnsons Baby Shampoo, even harder water (400 ppm CaCO3)) | lather effectiveness relative to the baby shampoo alone ([1]; pure substance, hard water, versus Johnsons Baby 2 in 1 shampoo, FIG. 11) | enhancement of lather stability of the product by addition as one-third of the product [1, 4] | enhancement of lather stability of the product by addition as one-third of the product [1, 5] | enhancement of lather stability of the product by addition as one-third of the product [1, 6] | enhancement of lather stability of the product by addition as one-third of the product [1, 7] | enhancement of lather stability of the product by addition as one-third of the product [1, 8] | enhancement of lather stability of the product by addition as one-third of the product [1, 9] | change in lather stability (lather drainage time) on addition of water hardness ([1]; 1% solution) | lather drainage time depressed by, upon addition of 4% electrolyte [1, 10] | Classification (in vitro skin irritation) (human skin cels) | In vitro Score MTT-50 (human skin cels) | lather drainage time ([1]; in the presence of 200 ppm hardness, FIG. 10) | lather drainage time increased by, upon addition of 4% electrolyte [1, 10] |
| --- | --- | --- | --- | --- | --- | --- | --- | --- | --- | --- | --- | --- | --- | --- | --- | --- |
| sodium lauroyl ED3A [Na2LED3A] | 5 fold | approximately 6 fold | – | – | more than 12 fold | more than 4 fold | approximately 7 fold | approximately 7 fold | more than 5 fold | more than doubled | five-fold increase | – | Non-irritant (>10,000) | >10,000 micro g/ml | over 200 seconds | more than 70 seconds |
